Measurements published in patent US4265904A, “Prostacyclin analogs of the 1 series and related analogs” (American Cyanamid Company, priority 1979, dated 1981).

Key:
Assay type in all cases: in vivo, guinea pigs
[1] = tested on: bronchospasms elicited by 5-hydroxytryptamine; test: Bronchodilator activity against bronchospasm elicited by intravenous 5-hydroxytryptamine, Konzett procedure; details: Cavia porcellus; guinea pig, 5-hydroxytryptamine spasmogen, three logarithmic cumulative intravenous doses; read-out: ED50 5HT
Protocol: (§1) The compounds of this invention are useful as bronchodilators for the treatment of asthma and chronic bronchitis. Bronchodilator activity is determined in guinea pigs against bronchospasms elicited by intravenous injections of 5-hydroxytryptamine, histamine or acetylcholine by the Konzett procedure. [See J. Lulling, P. Lievens, F. El Sayed and J. Prignot, Arzneimittel-Forschung, 18, 995 (1968).]
(§2) In Table which follows bronchodilator activity for representative compounds of this invention against one or more of three spasmogenic agents is expressed as an ED50 determined from the results obtained with three logarithmic cummulative intravenous doses. In this assay, these compounds of this invention provide an effect of longer duration than does natural l-PGE1 or l-PGE2.

[2] = tested on: bronchospasms elicited by histamine; test: Bronchodilator activity against bronchospasm elicited by intravenous histamine, Konzett procedure; details: Cavia porcellus; guinea pig, histamine spasmogen, three logarithmic cumulative intravenous doses
Protocol: as §1, §2

[3] = tested on: bronchospasms elicited by acetylcholine; test: Bronchodilator activity against bronchospasm elicited by intravenous acetylcholine, Konzett procedure; details: Cavia porcellus; guinea pig, acetylcholine spasmogen, three logarithmic cumulative intravenous doses
Protocol: as §1, §2

Structure (SMILES): C=CC(O)(C/C=C/[C@@H]1[C@H]2CC(CCCCC(=O)CO)O[C@H]2C[C@H]1O)CCCC (relative stereo) [11a, 16-Dihydroxy-6,9a (epoxy)-1-hydroxymethyl-1-oxo-16-vinyl-13-trans-prostene]
- ED50 [1]: 0.0276 mg/kg
- ED50 [2]: 0.00146 mg/kg
- ED50 [3]: 0.0032 mg/kg

Structure (SMILES): CCCCC(C)(O)C/C=C/[C@@H]1[C@H]2CC(C(I)CCCC(=O)OC)O[C@H]2C[C@H]1O (relative stereo) [dl 11α,16-Dihydroxy-6,9α-epoxy-5-iodo-16-methyl-13-trans-prostenoic acid methyl ester]
- ED50 [1]: 0.004 mg/kg
- ED50 [2]: 0.0069 mg/kg
- ED50 [3]: 0.0065 mg/kg

Structure (SMILES): CCCCC(C)(O)C/C=C/[C@@H]1[C@H]2CC(CCCCC(=O)OC)O[C@H]2C[C@H]1O (relative stereo) [dl 11α,16-Dihydroxy-6,9α-epoxy-16-methyl-13-trans-prostenoic acid methyl ester]
- ED50 [1]: 0.0925 mg/kg
- ED50 [2]: 0.111 mg/kg
- ED50 [3]: 0.146 mg/kg

Structure (SMILES): C=CC(O)(C/C=C/[C@@H]1[C@H]2CC(CCCCC(=O)OC)O[C@H]2C[C@H]1O)CCCC (relative stereo) [dl 11α,16-Dihydroxy-6,9α-epoxy-16-vinyl-13-trans-prostenoic acid methyl ester]
- ED50 [1]: 0.0367 mg/kg
- ED50 [2]: 0.0254 mg/kg
- ED50 [3]: 0.0491 mg/kg
